Source: ChEMBL document CHEMBL1138237, “Synthesis and anti-inflammatory/antioxidant activities of some new ring substituted 3-phenyl-1-(1,4-di-N-oxide quinoxalin-2-yl)-2-propen-1-one derivatives and of their 4,5-dihydro-(1H)-pyrazole analogues” (Bioorg Med Chem Lett, 2007)
pIC50: −log10 of the molar value.

How the values were obtained:
[1] = system: Radical scavenging activity; test: Antioxidant activity assessed as DPPH radical scavenging activity at 0.1 mM after 20 mins; format: functional
[2] = system: Radical scavenging activity; test: Antioxidant activity assessed as DPPH radical scavenging activity at 0.05 mM after 60 mins; format: functional
[3] = system: Radical scavenging activity; test: Antioxidant activity assessed as DPPH radical scavenging activity at 0.1 mM after 60 mins; format: functional
[4] = system: Radical scavenging activity; test: Antioxidant activity assessed as DPPH radical scavenging activity at 0.05 mM after 20 mins; format: functional
[5] = Antioxidant activity assessed as hydroxyl radical scavenging activity at 0.1 mM; format: functional
[6] = target: T1, Seed linoleate 13S-lipoxygenase-1 (Glycine max, UniProt P08170); test: Inhibition of soybean lipoxygenase
T1 sequence (P08170 whole entry): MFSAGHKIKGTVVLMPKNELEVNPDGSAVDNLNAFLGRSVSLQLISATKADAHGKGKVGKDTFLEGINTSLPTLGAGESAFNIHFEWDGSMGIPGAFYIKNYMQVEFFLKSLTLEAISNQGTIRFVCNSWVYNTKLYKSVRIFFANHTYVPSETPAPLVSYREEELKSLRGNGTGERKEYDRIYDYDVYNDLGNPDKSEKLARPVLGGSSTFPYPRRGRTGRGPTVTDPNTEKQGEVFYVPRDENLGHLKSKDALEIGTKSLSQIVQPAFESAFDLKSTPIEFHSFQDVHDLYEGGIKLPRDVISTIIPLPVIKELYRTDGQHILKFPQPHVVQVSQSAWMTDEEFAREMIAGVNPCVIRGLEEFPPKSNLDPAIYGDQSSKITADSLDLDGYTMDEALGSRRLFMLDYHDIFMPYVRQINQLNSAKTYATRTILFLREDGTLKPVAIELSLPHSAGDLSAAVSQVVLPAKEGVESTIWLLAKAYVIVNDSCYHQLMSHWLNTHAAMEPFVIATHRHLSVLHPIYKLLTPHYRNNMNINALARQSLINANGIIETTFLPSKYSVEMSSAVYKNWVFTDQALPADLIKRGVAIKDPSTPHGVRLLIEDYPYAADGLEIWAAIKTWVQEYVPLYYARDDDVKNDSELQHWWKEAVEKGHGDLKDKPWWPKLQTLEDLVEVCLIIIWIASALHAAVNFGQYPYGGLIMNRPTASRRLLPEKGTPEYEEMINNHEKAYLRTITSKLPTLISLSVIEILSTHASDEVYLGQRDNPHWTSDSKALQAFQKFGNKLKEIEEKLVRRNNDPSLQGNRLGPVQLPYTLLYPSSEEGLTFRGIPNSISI

Rattus norvegicus = test: Antiinflammatory activity against carrageenan-induced paw edema rat model at 0.01 mmol/ml/kg; format: functional
[7] = Antioxidant activity assessed as superoxide radical scavenging activity at 0.1 mM by nitroblue tetrazolium method; format: functional
[8] = target: T2, Seed linoleate 13S-lipoxygenase-1 (Glycine max) (UniProt P08170); test: Inhibition of soybean lipoxygenase at 100 uM
T2 sequence (whole entry): T1 sequence (P08170 whole entry)

Row | SMILES | Activity [1] | Activity [2] | Activity [3] | Activity [4] | Activity [5] | pIC50 [6] | Inhibition (Rattus norvegicus) | Activity [7] | inhibition [8]
1 | COc1cc(/C=C/C(=O)c2c(C)[n+]([O-])c3ccc(F)cc3[n+]2[O-])ccc1O | 45.3% | 38.4% | 52% | 36.4% | 99.7% | 4.07 | 36.3% |  | 
2 | COc1cc(/C=C/C(=O)c2c(C)[n+]([O-])c3ccccc3[n+]2[O-])cc(OC)c1OC |  |  |  |  | 99% | 4.38 | 55.4% | 100% | 
3 | COc1ccc2c(c1)[n+]([O-])c(C(=O)/C=C/c1ccc(O)c(OC)c1)c(C)[n+]2[O-] | 51% | 59% | 70.4% | 45% | 97.3% |  | 21.3% |  | 55.7%
4 | O=C(O)/C=C/c1ccc(O)c(O)c1 |  |  |  |  |  |  |  | 45% | 
5 | COc1cc(/C=C/C(=O)c2c(C)[n+]([O-])c3ccccc3[n+]2[O-])ccc1O | 39.4% |  | 56% |  | 100% | > 6.00 | 56.1% | 12.5% | 
6 | COc1cc(C2CC(c3c(C)[n+]([O-])c4ccc(F)cc4[n+]3[O-])=NN2)cc(OC)c1OC (stereo not given) | 51.6% | 67% | 68% | 58% | 99.3% | 4.15 | 23.4% |  | 
7 | COc1ccc2c(c1)c(CC(=O)O)c(C)n2C(=O)c1ccc(Cl)cc1 [INDOMETHACIN] |  |  |  |  |  |  | 47% |  | 
8 | CC(Cc1ccc(O)c(O)c1)C(C)Cc1ccc(O)c(O)c1 (stereo not given) | 81% | 72% | 82.6% | 68% |  |  |  |  | 
9 | Cc1c(C)c2c(c(C)c1O)CCC(C)(C(=O)O)O2 (stereo not given) |  |  |  |  | 73.4% |  |  |  | 
10 | Cc1c(C(=O)/C=C/c2ccc3c(c2)OCO3)[n+]([O-])c2ccccc2[n+]1[O-] | 1% |  | 3% |  | 96% | 4.51 | 4.5% |  | 
11 | COc1cc(C2CC(c3c(C)[n+]([O-])c4ccccc4[n+]3[O-])=NN2)cc(OC)c1OC (stereo not given) | 31% | 46% | 38% | 42% | 93.4% |  | 24.3% |  | 67.3%
